In article PMC9775310, “Anticancer, Antimicrobial, and Antioxidant Activities of Organodiselenide-Tethered Methyl Anthranilates” (Biomolecules, 2022):
Values after ≈ are worked out from the molar mass of the structure shown. Where two headings read alike, the source gives them in different places.

Legend:
Candida albicans [1] = assay: Agar well diffusion assay, C. albicans; type: cell-based; parameters: concentration or dose not given beside the values; conditions: ratio of inhibition zone to that of positive control
Experimental: (§1) According to the reported method, the OSe agents’ antimicrobial properties were estimated against Staphylococcus aureus (S. aureus), Escherichia coli (E. coli), and Candida albicans (C. albicans) microbial strains using the agar well diffusion assay. In addition, the MICs (in […]) were also recorded via the microdilution method following the reported procedure. Experimental details can be found in the Supplementary Materials Section S1 [16, 18].
(§2) The promising anticancer activities manifested by the OSe compounds encourage us to further evaluate their respective antimicrobial activity against a panel of gram-negative bacteria (e.g., E. coli) and the gram-positive bacteria (e.g., S. aureus) as well as a fungal strain (C. albicans) using the method of agar diffusion. The clotrimazole antifungal and the ampicillin antibacterial drugs were used as the positive controls. […]
(§3) 1.1.2. The antimicrobial activity
(§4) The antimicrobial activities of the OSe compounds were evaluated against C. albicans yeast as well as E. coli gram-negative and S. aureus gram-positive bacteria employing the agar well diffusion assay [ 4 ] .
(§5) Briefly, a concentration of 1 mM was prepared for each compound by dissolving in DMSO.
(§6) Paper discs of standard size […] were sterilized in an autoclave and soaked in 9 µL of the test compounds, and placed in the Petri dishes, which in turn contain a nutrient media (agar 9 g, peptone 5 g, and beef extract 3 g) seeded with the dedicated strain. Incubation lasted for 13 h at 36 0C. Experiments were replicated three times and the antifungal clotrimazole and antibiotic ampicillin were used as standards. The % activity index for the complex was determined and depicted in table 2. […]

Candida albicans [2] = assay: MIC by microdilution method, C. albicans; type: cell-based; conditions: read-out: MIC C. Albicans
Experimental: as §1
(§7) In general, C. Albicans fungus and S. aureus gram-positive bacteria were more sensitive than gram-negative bacteria toward the OSe compounds. […]
(§8) Briefly, a concentration of 1 mM was prepared for each compound by dissolving in DMSO. […]
(§9) Furthermore, the MICs (in µM) were determined by the microdilution method according to the
1.1.3. […]

Candida albicans [3] = assay: Agar well diffusion assay, C. albicans; type: cell-based; conditions: read-out: C. Albicans ZID
MCF-7 cells = assay: MTT assay, antiproliferative activity, MCF-7 breast carcinoma cells; type: cell-based; conditions: Homo sapiens, MCF7, 24 h, read-out: MCF7 IC50
Experimental: (§10) The anticancer activity of the OSe was performed using the MTT assay against liver (HepG2) and breast (MCF-7) carcinoma cells, as well as normal WI-38 cells following the reported method. Experimental details can be found in the Supplementary Materials Section S1.
(§11) Accordingly, the anticancer properties of the OSe hybrids were assessed against two cancer cell lines, i.e., HepG2 and MCF-7 cells. Furthermore, their corresponding cytotoxicity was also estimated against the immortalized lung WI-38 fibroblasts employing the MTT assay. The Adriamycin cancer drug was used as the positive control.
(§12) 1.1. The biological assays
(§13) 1.1.1. The anticancer activity
(§14) The breast adenocarcinoma (MCF-7), Hepatocellular carcinoma (HEPG-2), and normal fibroblast (WI-38) cells were obtained from ATCC via Holding company for biological products and vaccines (VACSERA), Cairo, Egypt. The reagents […] medium, MTT, DMSO, and fetal bovine serum was obtained from Sigma Aldrich. Dulbecco’s modified Eagle’s medium was used as the culture medium for the cells, and the cytotoxicity was evaluated using the reported MTT assay. Doxorubicin was used as the positive reference, and the IC50 values were obtained from the corresponding dose-response curve.
(§15) This colorimetric assay is based on converting the yellow tetrazolium bromide (MTT) to a purple formazan derivative by mitochondrial succinate dehydrogenase in viable cells. Cell lines were cultured in […] medium with 10% fetal bovine serum. Antibiotics added were 100 units/ml penicillin and 100µg/ml streptomycin at 37 C in a 5% Co2 incubator. The cell lines were seeded in a 96-well plate at a density of 1.0x10^4 cells/well. at 37 C for 48 h under 5% […]
(§16) Finally, dimethyl sulfoxide (DMSO) in the volume of 100 µl is added to each well to dissolve the purple formazan formed. […]

HepG2 cells = assay: MTT assay, antiproliferative activity, HepG2 liver carcinoma cells; type: cell-based; conditions: Homo sapiens, HepG2, 24 h, read-out: HepG2 IC50
Experimental: as §10
as §11, with “control. The concentration inhibition, 50%, needed to kill half of the cells (IC50) was estimated from (concentration-response plots) and tabulated in Table 1.” for “control.”
as §12, §13, §14, §15
Finally, dimethyl sulfoxide (DMSO) in the volume of 100 µl is added to each well to dissolve the purple formazan formed. The colorimetric assay is measured and recorded at an absorbance of 570 nm using a plate reader (EXL 800, USA). […]

WI-38 cells = assay: MTT assay, cytotoxicity against normal WI-38 fibroblasts; type: cell-based; conditions: Homo sapiens, WI-38, 24 h, read-out: WI38 IC50
Experimental: as §10, §11, §12, §13, §14, §15, §16

Escherichia coli [4] = assay: Agar well diffusion assay, E. coli; type: cell-based; conditions: ratio of inhibition zone to that of positive control
Experimental: as §1, §2, §3, §4, §5, §6

Staphylococcus aureus [5] = assay: Agar well diffusion assay, S. aureus; type: cell-based; conditions: ratio of inhibition zone to that of positive control
Experimental: as §1, §2, §3, §4, §5, §6

Escherichia coli [6] = assay: MIC by microdilution method, E. coli; type: cell-based; conditions: read-out: MIC E. coli
Experimental: as §1, §7, §8, §9
1.1.3. […]

Staphylococcus aureus [7] = assay: MIC by microdilution method, S. aureus; type: cell-based; conditions: read-out: MIC S. aureus
Experimental: as §1, §7, §8, §9
1.1.3. […]

[8] = DPPH radical scavenging bioassay; conditions: for DPPH radical scavenging activity: 200 µL, 1 mM in MeOH, DPPH 400 µL, 30 min, 517 nm
From the text: (§17) The DPPH and ABTS in vitro bioassays were used to assess the OSe antioxidant activities following the reported method. Experimental details can be found in the Supplementary Materials Section S1.
(§18) The redox modulation activities of the OSe compounds were extensively explored over the last decade owing to their chemopreventive and antioxidant potency. The latter is usually investigated by the ABTS and DPPH in vitro tests employing vitamin C as the positive control. The OSe compound’s magnitude estimated the antioxidant potential to decolorize the distinctive colors of the DPPH^. and ABTS^. radicals at 517 nm and 734 nm, respectively (Figure 2).
(§19) Figure 2 The OSe compounds redox activities assessment using the ABTS and DPPH experiments. All tests are mean ± SD. ABTS experiment: absorbance was followed at 734 nm for OSe compounds (50 µL, 1 mM in MeOH) and ABTS solution (60 µL). DPPH experiment: Absorbance was monitored after 30 min at 517 nm for OSe compounds (200 µL, 1 mM in MeOH) and DPPH (400 µL). […]
1.1.3. The antioxidant activity
1.1.3.1. The DPPH bioassay
The hydrogen atom or electron donation ability of the corresponding compounds was measured by estimating the bleaching of the purple color of a methanolic solution of DPPH [5]. This spectrophotometric assay uses stable DPPH. reagent. The sample was prepared by adding […] of the OSe compounds (1 mM in methanol) to […] DPPH in methanol. After 30 min of incubation in the dark, the absorbance was read against a blank at […]. Ascorbic acid (vitamin C) and ebselen were used as standard antioxidants (positive control). A blank sample was run without DPPH. A negative control sample was run using methanol instead of the sample. The radical scavenging activity was […]
using the following equation:
Inhibition%= (Ablank-Asample)/(Ablank)*100. […]

[9] = ABTS radical scavenging bioassay; conditions: for ABTS radical scavenging activity: 50 µL, 1 mM in MeOH, ABTS solution 60 µL, 734 nm
From the text: as §17, §18, §19
1.1.3.2. The ABTS bioassay
The antioxidant activity of the investigated compounds was assessed using 2,2’-azino-bis(3-ethylbenzothiazoline-6-sulphonic acid (ABTS) method. The radical cation derived from ABTS was prepared by the reaction of 60 mM ABTS solution with 0.3 M manganese dioxide solution in 0.1M phosphate buffer, pH 7. Then, the mixture was shaken, centrifuged, filtered, and the absorbance (Acontrol) of the resulting green-blue solution (ABTS radical solution) was measured at wavelength 734 nm. Then, […] of 1 mg/ml test compound in phosphate-buffered methanol was added. The absorbance (Atest) was measured. The reduction in color intensity was expressed as % inhibition. The % inhibition for each compound is calculated from the following equation
Inhibition% = (Acontrol-Asample)/(Acontrol)*100
Ascorbic acid (vitamin C) was used as a standard antioxidant (positive control). A blank sample was run without ABTS and using MeOH/phosphate buffer (1:1) instead of the sample. A negative control sample was run with MeOH/phosphate buffer (1:1) instead of a tested compound.

Escherichia coli [10] = assay: Agar well diffusion assay, E. coli; type: cell-based; conditions: read-out: E. coli ZID
Staphylococcus aureus [11] = assay: Agar well diffusion assay, S. aureus; type: cell-based; conditions: read-out: S. aureus ZID
[12] = inhibition zone diameter, disks (6 mm) soaked with 20 μM
[13] = dose needed to decrease the absorbance by 50%

SMILES	C. Albicans IA% (activity index) (Candida albicans [1])	IC50 (MCF-7 cells)	IC50 (HepG2 cells)	IC50 (WI-38 cells)	E. coli IA% (activity index) (Escherichia coli [4])	S. aureus IA% (activity index) (Staphylococcus aureus [5])	DPPH radical scavenging activity [8]	ABTS radical scavenging activity [9]	zone of inhibition at 20 µM (Escherichia coli [10])	zone of inhibition at 20 µM (Staphylococcus aureus [11])	zone of inhibition at 20 µM (Candida albicans [3])	melting point	also measured
Clc1ccccc1C(c1ccccc1)(c1ccccc1)n1ccnc1 [Clotrimazole, reference compound]	100%												MIC (Candida albicans [2]; microdilution): 2 µM (≈ 0.69 µg/mL); zone of inhibition at 20 µM (Candida albicans [3]; [12]): 24 mm
COC(=O)c1cc([Se]C)ccc1N [Compound 14, methyl 2-amino-5-(methylselanyl) benzoate]	100%	5.64 ± 0.3 µM	3.57 ± 0.1 µM	62.4 ± 3.6 µM	91.3%	90.5%	96%	91%	21 mm	19 mm	24 mm		MIC (Escherichia coli [6]): 0.5 µM (≈ 0.122 µg/mL); MIC (Staphylococcus aureus [7]): 2 µM (≈ 0.488 µg/mL); MIC (Candida albicans [2]): 2 µM (≈ 0.488 µg/mL); IC50 [8, 13]: 18.67 ± 0.12 µM; IC50 [9, 13]: 29.14 ± 0.2 µM
COC(=O)c1cc([Se]C#N)ccc1N [Compound 4, Methyl 2-amino-5-selenocyanatobenzoate]	75%	23.4 ± 1.8 µM	11.2 ± 1 µM	52.6 ± 3.1 µM	60.9%	76.2%	81%	73%	14 mm	16 mm	18 mm	118 to 119 °C	
CC1(C)S[C@@H]2[C@H](NC(=O)[C@H](N)c3ccccc3)C(=O)N2[C@H]1C(=O)O [Ampicillin, reference compound]					100%	100%							MIC (Escherichia coli [6]; microdilution): 0.5 µM (≈ 0.175 µg/mL); MIC (Staphylococcus aureus [7]; microdilution): 1 µM (≈ 0.349 µg/mL); zone of inhibition at 20 µM (Escherichia coli [10]; [12]): 23 mm; zone of inhibition at 20 µM (Staphylococcus aureus [11]; [12]): 21 mm
CCOC(=O)C(C#N)=NNc1ccc([Se][Se]c2ccc(NN=C(C#N)C(=O)OCC)c(C(=O)OC)c2)cc1C(=O)OC [Compound 6, dimethyl 5,5′-diselanediylbis(2-(2-(1-cyano-2-ethoxy-2-oxoethylidene) hydrazinyl) benzoate)]	70.8%	15.9 ± 1.2 µM	16.2 ± 1.2 µM	42.5 ± 2.6 µM	69.6%	76.2%	85%	69%	16 mm	16 mm	17 mm	105 to 106 °C	
COC(=O)c1cc([Se][Se]c2ccc(N)c(C(=O)OC)c2)ccc1N [Compound 5, dimethyl 5,5′-diselanediylbis(2-aminobenzoate)]	87.5%	9.89 ± 0.7 µM	7.08 ± 0.6 µM	35.9 ± 2.3 µM	82.6%	85.7%	92%	86%	19 mm	18 mm	21 mm		
